Patent EP3674287A1, “COCRYSTALS OF (R)-BACLOFEN” (Zaklady Farmaceutyczne "Polpharma" S.A., priority 2018, dated 2020)

How the values were obtained:
[1] = Preliminary solubility study of (R)-Baclofen in 18 solvents; assay type: physicochemical; details: for Solubility: 40 volume
Method: A preliminary study of (R)-Baclofen solubility was performed using different solvents (18 solvents) in order to design a proper experimental space to obtain or detect a new crystalline form.
Solubility test were performed with 25 mg of (R)-Baclofen in a test tube with screw cap and magnetic stirring. The solvent was added in small portions of 2 volumes (mg/ml) at room temperature up to 40 volumes. After each addition, the sample was stirred for 2-5 minutes.

[2] = pKa of the coformer; cited from earlier work
[3] = Solubility of prior-art crystal forms in water (EP2345634 B1); assay type: physicochemical; details: 25°C
Coformer pKa and ΔpKa = assay type: physicochemical; details: (R)-Baclofen versus coformer
[4] = Crystalline stability test under accelerated ICH storage conditions (XRPD); assay type: physicochemical
Method: The expression "crystalline stability" means that no conversion into another crystalline form occurs, as determined by XRPD. […]
Crystalline stability study of the new cocrystals found during the screening was performed under accelerated ICH storage conditions (40°C, 75±5 % RH) for 1 week and 4 weeks. The results are summarized in the Table 16: Table 16: Crystalline stability of cocrystals

[5] = Chemical stability study under accelerated ICH storage conditions (HPLC); assay type: physicochemical; details: for Chemical stability (HPLC): 40°C/ 75 ± 5 % RH, during 0, 1, 2 and 4 weeks; for Impurity CA1 (HPLC % a/a): RRT 0.48; for Impurity CA1 (HPLC % a/a) / Impurity A+Impurity CA2 (HPLC % a/a) / Impurity A (HPLC % a/a) / Impurity SA1 (HPLC % a/a) / Impurity B + Impurity FA1 (HPLC % a/a): 40 °C / 75 ± 5 % RH; for Impurity A+Impurity CA2 (HPLC % a/a) / Impurity A (HPLC % a/a): RRT 0.7; for Impurity SA1 (HPLC % a/a): RRT 0.33; for Impurity B + Impurity FA1 (HPLC % a/a): RRT 0.3
Method: Sample concentration : 5mg/5ml in ACN/H2O-0.1 methane sulfonic acid 20:80 Injection Volume: 10 µl; Run Time: 20.0 minutes; Column: […]100, 4.6x150 mm;100A,5µm; Mobile phase: gradient: ACN/H2O- 0.1 methane sulfonic acid 20:80 / ACN (95:5) -(75:25) - (95:5) Column temp.: 40°C; and Flow rate: 1 ml/min.
Samples were taken periodically (0 (start), after 1, 2, and 4 weeks) and analyzed by HPLC.
Retention time of (R)-Baclofen under conditions described in the Section "Measuring instruments, conditions and protocols" above, is about 13 min and the relative retention times (RRT) of known impurities are given below.

NC[C@H](CC(=O)O)c1ccc(Cl)cc1 [(R)-Baclofen, (3R)-4-amino-3-(4-chlorophenyl)butanoic acid]
Solubility ([1]; Acetone, reflux): Insoluble
Solubility ([1]; Acetonitrile, reflux): Insoluble
Solubility ([1]; DMF, reflux): Soluble
Solubility ([1]; DMSO, reflux): Soluble
Solubility ([1]; Dichloromethane, reflux): Insoluble
Solubility ([1]; Dioxane, reflux): Insoluble
Solubility ([1]; Ethanol, reflux): Insoluble
Solubility ([1]; Ethyl acetate, reflux): Insoluble
Solubility ([1]; Heptane, reflux): Insoluble
Solubility ([1]; Isobutyl acetate, reflux): Insoluble
Solubility ([1]; Isopropyl alcohol, reflux): Insoluble
Solubility ([1]; Methanol, reflux): Insoluble
Solubility ([1]; Methyl isobutyl ketone, reflux): Insoluble
Solubility ([1]; THF, reflux): Insoluble
Solubility ([1]; Tert-butyl methyl ether, reflux): Insoluble
Solubility ([1]; Toluene, reflux): Insoluble
Solubility ([1]; Water, reflux): soluble
Solubility ([1]; cyclohexane, reflux): Insoluble
solubility in water and majority of commonly used organic solvents ([1]; overall conclusion of the solvent study): low solubility
Solubility ([1]; the other tested solvents (samples 4-18), even at reflux temperature): insoluble

O=C(O)/C=C/c1ccccc1 [Cinnamic acid, (2E)-3-phenylprop-2-enoic acid]
Coformer [pKa] [2]: Cinnamic acid [pKa 4.10]

NC[C@H](CC(=O)O)c1ccc(Cl)cc1 [Crystal Form B, (3R)-4-amino-3-(4-chlorophenyl)butanoic acid]
solubility according to USP solubility test (descriptive term) [3]: sparingly soluble

COc1cc(/C=C/C(=O)O)ccc1O [Ferulic acid, (E)-3-(4-hydroxy-3-methoxy-phenyl)prop-2-enoic acid]
Coformer [pKa] [2]: Ferulic acid [pKa 4.26]

NCC(CC(=O)O)c1ccc(Cl)cc1.O=C(O)C=Cc1ccccc1 (stereo not shown) [Form III]
ΔpKa (Coformer pKa and ΔpKa): -0.60
Crystalline stability study 40 °C/ 75 ± 5 % RH After 1 week [4]: Stable
Crystalline stability study 40 °C/ 75 ± 5 % RH After 4 weeks [4]: Stable
Crystalline stability study 40 °C/ 75 ± 5 % RH After 4 weeks ([4]; listed as (R)-Baclofen-cinnamic acid cocrystal Form III): stable
Chemical stability (HPLC) [5]: stable
Impurity CA1 (HPLC % a/a) ([5]; week 0): 0.03 % a/a
Impurity CA1 (HPLC % a/a) ([5]; week 1): 0.03 % a/a
Impurity CA1 (HPLC % a/a) ([5]; week 2): 0.03 % a/a
Impurity CA1 (HPLC % a/a) ([5]; week 4): 0.03 % a/a
Impurity A+Impurity CA2 (HPLC % a/a) ([5]; week 0, listed as Cocrystal Form III): 0.04 % a/a
Impurity A+Impurity CA2 (HPLC % a/a) ([5]; week 1, listed as Cocrystal Form III): 0.04 % a/a
Impurity A+Impurity CA2 (HPLC % a/a) ([5]; week 2, listed as Cocrystal Form III): 0.04 % a/a
Impurity A+Impurity CA2 (HPLC % a/a) ([5]; week 4, listed as Cocrystal Form III): 0.04 % a/a

NCC(CC(=O)O)c1ccc(Cl)cc1.NCC(CC(=O)O)c1ccc(Cl)cc1.O=C(O)c1ccccc1 (stereo not shown) [Form II]
ΔpKa (Coformer pKa and ΔpKa): -0.3
Crystalline stability study 40 °C/ 75 ± 5 % RH After 1 week [4]: stable
Crystalline stability study 40 °C/ 75 ± 5 % RH After 4 weeks [4]: Stable
Crystalline stability study 40 °C/ 75 ± 5 % RH After 4 weeks ([4]; listed as (R)-Baclofen-benzoic acid cocrystal Form II): stable
Chemical stability (HPLC) [5]: stable
Impurity A (HPLC % a/a) ([5]; week 0): 0.02 % a/a
Impurity A (HPLC % a/a) ([5]; week 1): 0.02 % a/a
Impurity A (HPLC % a/a) ([5]; week 2): 0.02 % a/a
Impurity A (HPLC % a/a) ([5]; week 4): 0.02 % a/a

NCC(CC(=O)O)c1ccc(Cl)cc1.O=C(O)C=Cc1ccccc1 (stereo not shown) [Form IV]
Crystalline stability study 40 °C/ 75 ± 5 % RH After 4 weeks ([4]; listed as (R)-Baclofen-cinnamic acid cocrystal Form IV): stable
Impurity A+Impurity CA2 (HPLC % a/a) ([5]; week 0, listed as Cocrystal Form IV): 0.03 % a/a
Impurity A+Impurity CA2 (HPLC % a/a) ([5]; week 1, listed as Cocrystal Form IV): 0.03 % a/a
Impurity A+Impurity CA2 (HPLC % a/a) ([5]; week 2, listed as Cocrystal Form IV): 0.03 % a/a
Impurity A+Impurity CA2 (HPLC % a/a) ([5]; week 4, listed as Cocrystal Form IV): 0.03 % a/a

COc1cc(C=O)ccc1O.NCC(CC(=O)O)c1ccc(Cl)cc1.NCC(CC(=O)O)c1ccc(Cl)cc1 (stereo not shown) [Form IX]
ΔpKa (Coformer pKa and ΔpKa): -3.70
Crystalline stability study 40 °C/ 75 ± 5 % RH After 1 week [4]: Unstable
Crystalline stability study 40 °C/ 75 ± 5 % RH After 4 weeks [4]: Unstable

NCC(CC(=O)O)c1ccc(Cl)cc1.O=C(O)c1ccccc1O (stereo not shown) [Form VIII]
ΔpKa (Coformer pKa and ΔpKa): 0.83
Crystalline stability study 40 °C/ 75 ± 5 % RH After 1 week [4]: Stable
Crystalline stability study 40 °C/ 75 ± 5 % RH After 4 weeks [4]: Stable
Crystalline stability study 40 °C/ 75 ± 5 % RH After 4 weeks ([4]; listed as (R)-Baclofen-salicylic acid cocrystal Form VIII): stable
Chemical stability (HPLC) [5]: stable
Impurity SA1 (HPLC % a/a) ([5]; week 0): 0.05 % a/a
Impurity SA1 (HPLC % a/a) ([5]; week 1): 0.05 % a/a
Impurity SA1 (HPLC % a/a) ([5]; week 2): 0.05 % a/a
Impurity SA1 (HPLC % a/a) ([5]; week 4): 0.05 % a/a
Impurity A (HPLC % a/a) ([5]; week 0): 0.04 % a/a
Impurity A (HPLC % a/a) ([5]; week 1): 0.04 % a/a
Impurity A (HPLC % a/a) ([5]; week 2): 0.04 % a/a
Impurity A (HPLC % a/a) ([5]; week 4): 0.04 % a/a

NCC(CC(=O)O)c1ccc(Cl)cc1.NCC(CC(=O)O)c1ccc(Cl)cc1.O=C(O)C=CC(=O)O (stereo not shown) [Form VII]
ΔpKa (Coformer pKa and ΔpKa): 0.77
Crystalline stability study 40 °C/ 75 ± 5 % RH After 1 week [4]: Unstable
Crystalline stability study 40 °C/ 75 ± 5 % RH After 4 weeks [4]: Unstable

COc1cc(C=CC(=O)O)ccc1O.NCC(CC(=O)O)c1ccc(Cl)cc1 [Form XII]
Crystalline stability study 40 °C/ 75 ± 5 % RH After 1 week [4]: Stable
Crystalline stability study 40 °C/ 75 ± 5 % RH After 4 weeks [4]: Stable
Crystalline stability study 40 °C/ 75 ± 5 % RH After 4 weeks ([4]; listed as (R)-Baclofen-ferulic acid cocrystal Form XII): stable
Chemical stability (HPLC) [5]: stable
Impurity A+Impurity CA2 (HPLC % a/a) ([5]; Form XII table, week 0): 0.05 % a/a
Impurity A+Impurity CA2 (HPLC % a/a) ([5]; Form XII table, week 1): 0.04 % a/a
Impurity A+Impurity CA2 (HPLC % a/a) ([5]; Form XII table, week 2): 0.05 % a/a
Impurity A+Impurity CA2 (HPLC % a/a) ([5]; Form XII table, week 4): 0.05 % a/a
Impurity B + Impurity FA1 (HPLC % a/a) ([5]; week 0): 0.07 % a/a
Impurity B + Impurity FA1 (HPLC % a/a) ([5]; week 1): 0.07 % a/a
Impurity B + Impurity FA1 (HPLC % a/a) ([5]; week 2): 0.08 % a/a
Impurity B + Impurity FA1 (HPLC % a/a) ([5]; week 4): 0.07 % a/a

COc1cc(C=O)ccc1O [Vanillin]
Coformer [pKa] [2]: Vanillin [pKa 7.5]
